pIC50: −log10 of the molar value. Converted amounts (≈) assume the structure as drawn.
Tests used:
WI38 (Healthy cell line) = assay: MTT cytotoxicity assay; assay type: cell-based; settings: Homo sapiens, WI-38; MTT; 24 h continuous exposure; highest concentration tested 20 μM; read-out: IC50 WI38 (Healthy cell line)
Method: (§1) Two immortalised human cell lines, HeLa and WI38 were used for cytotoxicity screening of the compounds. HeLa is a human cervical cancer cell line and WI38 is a normal healthy cell line. The cell lines were obtained from the American Type Culture Collection. The cell-lines were maintained in monolayer culture in 75 cm2 flasks (TPP, Switzerland) under a humidified 5% CO2 atmosphere at 37° C. The HeLa cell line was maintained in Dulbecco's Modified Eagles Media (DMEM; Invitrogen) supplemented with foetal bovine serum (10% v/v; Invitrogen), L-glutamine (2 mM; Invitrogen), non-essential amino acids (1×; Invitrogen) and Penicillin-Streptomycin (1% v/v, Invitrogen). For WI38, Eagle's Minimum Essential Medium, and Penicillin-Streptomycin (1% v/v, Invitrogen) and foetal bovine serum (10%, nvitrogen) was used. For passaging, cells were washed with phosphate buffered saline [PBS] (GIBCO 14040, Invitrogen, UK), incubated with trypsine (GIBCO 25300, Invitrogen, UK), and re-seeded into fresh medium. For seeding, cells were counted using a Neubauer haemocytometer (Assistant, Germany) by microscopy (Nikon, USA) on a non-adherent suspension of cells that were washed in PBS, trypsinised, centrifuged at 8° C. at 8000 rpm for 5 min and re-suspended in fresh medium.
(§2) The cells were grown in normal cell culture conditions at 37° C. under a 5% CO2 humidified atmosphere using appropriate medium. The cell count was adjusted to 10^5 cells/ml/ and 20,000 cells were added per well. The cells were incubated for 24 hours and 1 μl of the appropriate inhibitor concentrations were to the wells in triplicates. After 24 h of continuous exposure to each compound, the cytotoxicity was determined using the MIT (3-(4,5-Dimethylthiazol-2-yl)-2,5-diphenyltetrazolium bromide) (Lancaster Synthesis Ltd, UK) colorimetric assay. Absorbance was quantified by spectrophotometry at λ=570 nm (Envision Plate Reader, PerkinElmer, USA). IC50 values were calculated by a dose-response analysis using the Prism Graphpad Prism® software. The cytotoxicity results are shown below in Table 12.

[1] = tested on: HeLa (Cervical cancer cell line); assay: MTT cytotoxicity assay; assay type: cell-based; settings: Homo sapiens, MTT, 24 h continuous exposure, read-out: IC50 HeLa (Cervical cancer cell line)
Method: as §1, §2

K. pneumonia M6 = assay: General MIC protocol, Gram negative; assay type: cell-based; settings: Klebsiella pneumoniae; KP-M6
Method: (§3) General Minimum Inhibitory Concentration (MIC) Protocol
(§4) 1. Grow up cultures of bacterial strains to be tested overnight.
(§5) 2. Dilute down overnight cultures to concentration of 1×10^6 bacteria/ml (OD0.01) in Tryptic soy broth (TSB).
(§6) 3. Add 100 μl of TSB media to column 2-column 12 in 96 well plate (keeping column 1 clear).
(§7) 4. Make up compound to a concentration of 64 μg/ml in water (or alternatively to twice the chosen maximum concentration to be tested).
(§8) 5. Add 100 μl of antibiotic solution to the 1st and 2nd columns.
(§9) 6. Using a multichannel pipette take 100 μl from the 2nd column wells and pipette into 3rd column wells and repeat down the 96 well plate (remembering to include controls i.e. uninfected media and media with no antibiotic).
(§10) 7. To each well (except uninfected control row H) add 100 μl of bacterially infected media at a concentration of 1×10^6/ml.
(§11) 8. This dilutes down the concentration of the antibiotic by half (top dose is therefore 32 μg/ml in column 1) and also gives you a starting bacterial concentration of 5×10^5/ml.
(§12) 9. Wrap plate with parafilm to prevent evaporation.
(§13) 10. Leave at desired temperature (37° C. unless specified elsewhere) for 20 hours.
(§14) 11. Next day check plates for growth and measure optical density (i.e. absorbance) at a wavelength of 600 nm (OD600).
(§15) An example of such a plate is shown in FIG. 1 where column A represents wells that receive the top dose 100 μl; column B represents wells that receive the top dose 100 μl+100 μl TSB; and column C represents wells that receive 100 μl TSB. Row H which is marked by a box labelled D represents a blank where the cells receive no bacteria.

A. baumannii AYE = assay: General MIC protocol, Gram negative; assay type: cell-based; settings: Acinetobacter baumannii
Method: as §3, §4, §5, §6, §7, §8, §9, §10, §11, §12, §13, §14, §15

P. aeruginosa PA01 = assay: General MIC protocol, Gram negative; assay type: cell-based; settings: Pseudomonas aeruginosa, PA01, PA01
Method: as §3, §4, §5, §6, §7, §8, §9, §10, §11, §12, §13, §14, §15

K. pneumonia NCTC 13368 = assay: General MIC protocol, Gram negative; assay type: cell-based
Method: as §3, §4, §5, §6, §7, §8, §9, §10, §11, §12, §13, §14, §15

P. aeruginosa NCTC 13437 = assay: General MIC protocol, Gram negative; assay type: cell-based; settings: Pseudomonas aeruginosa, NCTC13437
Method: as §3, §4, §5, §6, §7, §8, §9, §10, §11, §12, §13, §14, §15

A. baumannii NCTC 17978 = assay: General MIC protocol, Gram negative; assay type: cell-based; settings: Acinetobacter baumannii, NCTC17978
Method: as §3, §4, §5, §6, §7, §8, §9, §10, §11, §12, §13, §14, §15

EMRSA-16 = assay: General MIC protocol, Gram positive panel; assay type: cell-based
Method: as §3, §4, §5, §6, §7, §8, §9, §10, §11, §12, §13, §14, §15

[2] = tested on: E. faecalis VRE NCTC 12201; assay: General MIC protocol, Gram positive panel; assay type: cell-based
Method: as §3, §4, §5, §6, §7, §8, §9, §10, §11, §12, §13, §14, §15

[3] = tested on: E. faecium VRE NCTC 12204; assay: General MIC protocol, Gram positive panel; assay type: cell-based
Method: as §3, §4, §5, §6, §7, §8, §9, §10, §11, §12, §13, §14, §15

[4] = tested on: methicillin sensitive S. aureus ATTC 9144 (NCTC 6571); assay: General MIC protocol, Gram positive panel; assay type: cell-based; settings: Staphylococcus aureus, MSSA / NCTC 6571; MSSA 9144
Method: as §3, §4, §5, §6, §7, §8, §9, §10, §11, §12, §13, §14, §15

EMRSA-15 = assay: General MIC protocol, Gram positive panel; assay type: cell-based
Method: as §3, §4, §5, §6, §7, §8, §9, §10, §11, §12, §13, §14, §15

E. faecalis VSE NCTC 775 = assay: General MIC protocol, Gram positive panel; assay type: cell-based; settings: Enterococcus faecalis, NCTC775; VSE 775
Method: as §3, §4, §5, §6, §7, §8, §9, §10, §11, §12, §13, §14, §15

[5] = tested on: resistant mutants of KP 16; assay: MIC following resistance development; assay type: cell-based, Klebsiella; settings: KP 16; following resistance development
Method: as §3, §4, §5, §6, §7, §8, §9, §10, §11, §12, §13, §14, §15
(§16) The MIC of PP-A418 and colistin against the strains used in the time kill analysis of Example 31 following resistance development were measured. The MIC was measured using the general MIC protocol given above. The results are given in Table 14 below where the MIC values of resistant mutants are shown in the brackets.

[6] = tested on: resistant mutants of KP 13438; assay: MIC following resistance development; assay type: cell-based, Klebsiella; settings: KP 13438; following resistance development
Method: as §3, §4, §5, §6, §7, §8, §9, §10, §11, §12, §13, §14, §15, §16

[7] = tested on: resistant mutants of KP 13368; assay: MIC following resistance development; assay type: cell-based, Klebsiella; settings: KP 13368; following resistance development
Method: as §3, §4, §5, §6, §7, §8, §9, §10, §11, §12, §13, §14, §15, §16

Klebsiella KP 342 = assay: General MIC protocol, Gram negative; assay type: cell-based; settings: Klebsiella, KP342
Method: as §3, §4, §5, §6, §7, §8, §9, §10, §11, §12, §13, §14, §15
The minimum inhibitory concentration (MIC) was measured using the general MIC protocol given above.

K. pneumonia NCTC 51851 = assay: General MIC protocol, Gram negative; assay type: cell-based; settings: K. pneumonia NCTC 51851
Method: as §3, §4, §5, §6, §7, §8, §9, §10, §11, §12, §13, §14, §15

K. pneumonia KP16 = assay: General MIC protocol, Gram negative; assay type: cell-based; settings: K. pneumonia KP16
Method: as §3, §4, §5, §6, §7, §8, §9, §10, §11, §12, §13, §14, §15

K. pneumonia NCTC 13443 = assay: General MIC protocol, Gram negative; assay type: cell-based; settings: K. pneumonia NCTC 13443
Method: as §3, §4, §5, §6, §7, §8, §9, §10, §11, §12, §13, §14, §15

K. pneumonia MGH 78578 = assay: General MIC protocol, Gram negative; assay type: cell-based; settings: K. pneumonia MGH 78578
Method: as §3, §4, §5, §6, §7, §8, §9, §10, §11, §12, §13, §14, §15

K. pneumonia NCTC 13438 = assay: General MIC protocol, Gram negative; assay type: cell-based; settings: K. pneumonia NCTC 13438
Method: as §3, §4, §5, §6, §7, §8, §9, §10, §11, §12, §13, §14, §15

K. pneumonia NCTC 13439 = assay: General MIC protocol, Gram negative; assay type: cell-based; settings: K. pneumonia NCTC 13439
Method: as §3, §4, §5, §6, §7, §8, §9, §10, §11, §12, §13, §14, §15

[8] = Klebsiella pneumoniae, NCTC13368

Compound | pIC50 (WI38 (Healthy cell line)) | pIC50 [1] | MIC (K. pneumonia M6) [µg/mL] | MIC (A. baumannii AYE) [µg/mL] | MIC (P. aeruginosa PA01) [µg/mL] | MIC (K. pneumonia NCTC 13368; [8]) [µg/mL] | MIC (P. aeruginosa NCTC 13437) [µg/mL] | MIC (A. baumannii NCTC 17978) [µg/mL] | MIC (EMRSA-16) [µg/mL] | MIC [2] [µg/mL] | MIC [3] [µg/mL] | MIC [4] [µg/mL] | MIC (EMRSA-15) [µg/mL] | MIC (E. faecalis VSE NCTC 775) [µg/mL] | other results
CCN(CC)C(=O)c1cc2cc(NC(=O)c3cc(NC(=O)CCCOc4cc5c(cc4OC)C(=O)N4CCC[C@H]4C=N5)cn3C)ccc2o1 [PP-B27, (S)—N-(2-(diethylcarbamoyl)benzofuran-5-yl)-4-(4-((7-methoxy-5-oxo-2,3,5,11a-tetrahydro-1H-benzo[e]pyrrolo[1,2-a][1,4]-diazepin-8-yl)oxy)butanamido)-1-methyl-1H-pyrrole-2-carboxamide] | < 4.70 | < 4.70 | 8 (≈ 12 µM) | 4 (≈ 5.98 µM) | 128 (≈ 191 µM) | 64 (≈ 95.7 µM) | 32 (≈ 47.9 µM) | 4 (≈ 5.98 µM) | 0.5 (≈ 0.748 µM) | < 0.125 | < 0.125 | < 0.125 | 0.25 (≈ 0.374 µM) | 0.25 (≈ 0.374 µM) | –
CCN(CC)C(=O)c1cc2cc(NC(=O)c3cc(NC(=O)CCCOc4cc5c(cc4OC)C(=O)N4CCC[C@H]4C=N5)cn3C)ccc2s1 [PP-B28] | < 4.70 | < 4.70 | 8 (≈ 11.7 µM) | 4 (≈ 5.84 µM) | 128 (≈ 187 µM) | 64 (≈ 93.5 µM) | 32 (≈ 46.7 µM) | 4 (≈ 5.84 µM) | 4 (≈ 5.84 µM) | 0.5 (≈ 0.73 µM) | 1 (≈ 1.46 µM) | 0.5 (≈ 0.73 µM) | 1 (≈ 1.46 µM) | 1 (≈ 1.46 µM) | –
colistin [reference compound] | – | – | – | – | – | – | – | – | – | – | – | – | – | – | MIC of resistant mutants (in brackets) [5]: (64-128) μg/ml; MIC of resistant mutants (in brackets) [6]: (64-128) μg/ml; MIC of resistant mutants (in brackets) [7]: (32-64) μg/ml; MIC (Klebsiella KP 342): 4 µg/mL; MIC (K. pneumonia NCTC 51851): 64 µg/mL; MIC (K. pneumonia KP16): 2 to 4 µg/mL; MIC (K. pneumonia KP16; listed as Collistin): 1 µg/mL; MIC (K. pneumonia NCTC 13443): 2 µg/mL; MIC (K. pneumonia NCTC 13368; KP NCTC 13368): 4 µg/mL; MIC (K. pneumonia MGH 78578): 8 µg/mL; MIC (K. pneumonia NCTC 13438): 2 µg/mL; MIC (K. pneumonia NCTC 13439): 4 µg/mL

Source: patent publication US10640507B2, “PBD antibacterial agents” (KING'S COLLEGE LONDON, priority 2015, dated 2020)
